Tests used:
[1] = test system: LNCaP and 22rv1 cell lines; experiment: SAR statements on LNCaP and 22rv1 cell lines; format: cell-based; conditions: LNCaP 1 μM, 22rv1 0.5 μM
Procedure: All compounds were evaluated for their effects on LNCaP and 22rv1 cell lines at 1 and 0.5 μM concentrations, respectively. […] For this purpose different analogues of B-3 with chain length varying from 0 to 4 carbon were synthesized (Table 1). […] In view of the availability of a variety of commercially available benzyl amines over phenyl propyl amines and method to functionalize analogues with 1C chain compound 14c was selected for further modification.

22rv1 = experiment: Effect on 22rv1 cell viability; conditions: for % Cell Viability of 22rv1 at 1 μM: at 1 μM (stated in cell)
Procedure: (§1) The initial interest was to see the importance of length of side chain on B-3. […] Relative cell growth can be assessed using the MTT (3-(4,5-dimethylthiazol-2-yl)-2,5-diphenyltetrazolium bromide) assay, a colorimetric assay for assessing cell metabolic activity. Cells (1000 to 2000 cells/well) in 150 μL culture medium were seeded in wells of a 96-well plate one day before various concentrations of drugs were added. After continuing culture in the presence of the drugs for the indicated time (3-4 days), 20 μL of 5 mg/mL MTT solution (Sigma-Aldrich) was added into each well. After incubation at 37° C. for 30 min, the culture medium was removed and 100 μL of DMSO was added to dissolve MTT crystals. Plates were shaken for 15 min at room temperature and absorbance at OD590 was read by plate reader.

LnCap cells = experiment: Effect on LnCap cell viability; conditions: for viability at 1 µM: Homo sapiens, LNCaP, read-out: % Cell Viability of LnCap cells at 1 μM, 1 μM
Procedure: as §1

| SMILES | activity on cell lines, in words (SAR) [1] | % Cell Viability of 22rv1 at 0.5 μM (22rv1) | % Cell Viability of LnCap cells at 1 μM (LnCap cells) | other results |
| --- | --- | --- | --- | --- |
| O=C(NCCCCc1ccccc1)c1cccc(-c2cc(O)c3ncccc3c2)c1 [Compound 14a] | deterioration of activity | – | – | – |
| O=C(NCCc1ccccc1)c1cccc(-c2cc(O)c3ncccc3c2)c1 [Compound 14b] | deterioration of activity | 83.7% (B-3, | – | – |
| O=C(NCc1ccccc1)c1cccc(-c2cc(O)c3ncccc3c2)c1 [Compound 14c] | restoration of activity | 79.3% (B-3, | – | – |
| O=C(Nc1ccccc1)c1cccc(-c2cc(O)c3ncccc3c2)c1 [Compound 14d] | poor activity | – | – | – |
| O=C(NCc1ccc(F)cc1)c1cccc(-c2cc(O)c3ncccc3c2)c1 [Compound 15a] | – | – | 72.8% | – |
| O=C(NCc1cccc(O)c1)c1cccc(-c2cc(O)c3ncccc3c2)c1 [Compound 15e] | – | – | 87.9% | – |
| O=C(NCc1ccccc1O)c1cccc(-c2cc(O)c3ncccc3c2)c1 [Compound 15f] | – | – | 56.9% | – |
| COc1ccc(CNC(=O)c2cccc(-c3cc(O)c4ncccc4c3)c2)cc1 [Compound 15g] | – | – | 68.4% | – |
| COc1cccc(CNC(=O)c2cccc(-c3cc(O)c4ncccc4c3)c2)c1 [Compound 15h] | – | – | 88.5% (B-3, ND) | – |
| COc1cc(CNC(=O)c2cccc(-c3cc(O)c4ncccc4c3)c2)cc(OC)c1OC [Compound 15k] | – | – | 98.1 (B-3, ND) % | – |
| COc1ccc(CNC(=O)c2cccc(-c3cc(O)c4ncccc4c3)c2)cc1OC [Compound 15l] | – | – | 75.7 (B-3, ND) % | – |
| O=C(NCc1ccc(C(F)(F)F)cc1)c1cccc(-c2cc(O)c3ncccc3c2)c1 [Compound 15m] | – | – | 67.7% | – |
| O=C(NCc1cccc(C(F)(F)F)c1)c1cccc(-c2cc(O)c3ncccc3c2)c1 [Compound 15n] | – | – | 75.4% | – |
| O=C(NCc1ccccc1C(F)(F)F)c1cccc(-c2cc(O)c3ncccc3c2)c1 [Compound 15o] | – | – | 94.5% | – |
| O=C(NCc1cc(C(F)(F)F)cc(C(F)(F)F)c1)c1cccc(-c2cc(O)c3ncccc3c2)c1 [Compound 15p] | – | – | 62.5% | – |
| O=C(NCc1ccc(C(F)(F)F)cc1F)c1cccc(-c2cc(O)c3ncccc3c2)c1 [Compound 15r] | – | – | 101% | – |
| N#Cc1ccc(CNC(=O)c2cccc(-c3cc(O)c4ncccc4c3)c2)cc1 [Compound 15s] | – | – | 52.8% (B-3, ND) | – |
| CN(C)c1ccc(CNC(=O)c2cccc(-c3cc(O)c4ncccc4c3)c2)cc1 [Compound 15t] | – | 19.6% | 66.3% | – |
| O=C(NCc1ccncc1)c1cccc(-c2cc(O)c3ncccc3c2)c1 [Compound 15u] | – | – | 70.9% | – |
| O=C(NCc1cccs1)c1cccc(-c2cc(O)c3ncccc3c2)c1 [Compound 15v] | – | – | 79.8% | – |
| O=C(NCC1CC1)c1cccc(-c2cc(O)c3ncccc3c2)c1 [Compound 15w] | – | – | 60.7% | – |
| O=C(NCC1CCCCC1)c1cccc(-c2cc(O)c3ncccc3c2)c1 [Compound 15x] | – | – | 104% (B-3, ND) | – |

| SMILES | activity on cell lines, in words (SAR) [1] | % Cell Viability of 22rv1 at 0.5 μM (22rv1) | % Cell Viability of LnCap cells at 1 μM (LnCap cells) | other results |
| --- | --- | --- | --- | --- |
| O=C(NCc1ccc(Oc2ccccc2)cc1)c1cccc(-c2cc(O)c3ncccc3c2)c1 [Compound 16a] | significant improvement of activity over B-3 | – | – | % Cell Viability of 22rv1 at 1 μM (22rv1): 29.5% |
| O=C(NCc1ccc(Oc2ccc(Cl)cc2)cc1)c1cccc(-c2cc(O)c3ncccc3c2)c1 [Compound 16b] | – | – | – | % Cell Viability of 22rv1 at 1 μM (22rv1): 33.2% |
| O=C(NCc1ccc(Oc2ccccc2Cl)cc1)c1cccc(-c2cc(O)c3ncccc3c2)c1 [Compound 16c] | – | – | – | % Cell Viability of 22rv1 at 1 μM (22rv1): 38.1% |
| O=C(NCc1ccc(Oc2ccc(F)cc2)cc1)c1cccc(-c2cc(O)c3ncccc3c2)c1 [Compound 16d] | – | – | – | % Cell Viability of 22rv1 at 1 μM (22rv1): 35.1% |
| O=C(NCc1ccc(-c2ccc(C(F)(F)F)cc2)cc1)c1cccc(-c2cc(O)c3ncccc3c2)c1 [Compound 16f] | – | – | 44.2% | – |
| CC1Cc2ccc(-c3ccc(CNC(=O)c4cccc(-c5cc(O)c6ncccc6c5)c4)cc3)cc2O1 (centres unmarked) [Compound 16g] | – | – | 30.0% | – |
| O=C(NCc1cccc(-c2ccccc2)c1)c1cccc(-c2cc(O)c3ncccc3c2)c1 [Compound 16h] | – | 26.9% | 21.8% | – |
| O=C(NCc1cccc(-c2ccc(F)cc2)c1)c1cccc(-c2cc(O)c3ncccc3c2)c1 [Compound 16i] | – | 42.01% | 17.3% | – |
| O=C(NCc1ccccc1-c1ccc(CN2CCCC2=O)cc1)c1cccc(-c2cc(O)c3ncccc3c2)c1 [Compound 16j] | – | 14.3% | 10.9% | inhibition of 22rv1 cells, in words (22rv1; compared with B-3): inhibited 22rv1 cells much better than B-3 |
| O=C(NCc1ccc(C(=O)c2ccccc2)cc1)c1cccc(-c2cc(O)c3ncccc3c2)c1 [Compound 16k] | – | 6.4% | 26.7 (B-3, ND) % | – |
| O=C(O)c1ccc(CNC(=O)c2cccc(-c3cc(O)c4ncccc4c3)c2)cc1 [Compound 17a] | – | – | – | viability at 1 µM (LnCap cells): 97.5% |
| NC(=O)c1ccc(CNC(=O)c2cccc(-c3cc(O)c4ncccc4c3)c2)cc1 [Compound 17b] | lower activity than B-3 | 78.4% | – | – |
| COC(=O)c1ccc(CNC(=O)c2cccc(-c3cc(O)c4ncccc4c3)c2)cc1 [Compound 17c] | – | – | – | viability at 1 µM (LnCap cells): 47.9%; viability at 0.5 µM (22rv1; Homo sapiens, 22Rv1, read-out: % Cell Viability of 22rv1 at 0.5 μM): 12.9% |
| CCOC(=O)c1ccc(CNC(=O)c2cccc(-c3cc(O)c4ncccc4c3)c2)cc1 [Compound 17d] | – | 22.7% | – | – |
| CCCOC(=O)c1ccc(CNC(=O)c2cccc(-c3cc(O)c4ncccc4c3)c2)cc1 [Compound 17e] | better than compound 17c | 7.9% | – | – |
| CC(C)CNC(=O)c1ccc(CNC(=O)c2cccc(-c3cc(O)c4ncccc4c3)c2)cc1 [Compound 17f] | proved useful | 41.0% | – | – |
| CC(C)NC(=O)c1ccc(CNC(=O)c2cccc(-c3cc(O)c4ncccc4c3)c2)cc1 [Compound 17g] | proved useful | 41.0% | – | – |
| O=C(NCc1ccc(C(=O)NC2CCCC2)cc1)c1cccc(-c2cc(O)c3ncccc3c2)c1 [Compound 17i] | loss of activity | 29.8% | – | – |
| O=C(NCc1ccc(C(=O)N[C@H]2CC[C@H](C(F)(F)F)CC2)cc1)c1cccc(-c2cc(O)c3ncccc3c2)c1 [Compound 17m] | much more active than compound 17n | – | 24.2% | – |
| O=C(NCc1ccc(C(=O)N[C@H]2CC[C@@H](C(F)(F)F)CC2)cc1)c1cccc(-c2cc(O)c3ncccc3c2)c1 [Compound 17n] | 17m (trans isomer) was much more active than compound 17n | – | – | – |
| O=C(NCc1ccc(C(=O)Nc2ccc(C(F)(F)F)cc2)cc1)c1cccc(-c2cc(O)c3ncccc3c2)c1 [Compound 17o] | significantly lower activities compared to compounds 17l and 17m | – | – | – |

Reference: patent US12378201B2, “Histone demethylase inhibitors for treating cancers” (The Board of Regents of the University of Texas System, priority 2019, dated 2025)
